From publication PMC12503911, “Cytotoxicity of Atropisomeric [1,1′‐Binaphthalene]‐2,2′‐Diamines (BINAM) and Analogs in Human Cancer Cells: Enantioselectivity, Structure–Activity Relationships, and Mechanism” (Chemmedchem, 2025) come the findings set out here.

For one test, the target named is T1, AuroraB (Homo sapiens, UniProt Q96GD4).
T1 construct: gene AURKB
As to the kind of experiment: biochemical. Particulars: mean of intraexperimental duplicates, n = 1; read-out: Residual activities [% of control] / 1(R) 10 µM. The arrangement: 33PanQinase radiometric kinase activity assay, residual activity in % of control, contract lab Reaction Biology. As for the experimental part:
(§1) Kinase Screening was performed at Reaction Biology (Freiburg, Germany) by using the ^33PanQinase Assay.^[ [90] ^] Based on this knowledge, we commissioned a kinase screening by the firm Reaction Biology, targeting those kinases whose inhibition has shown an indirect effect on microtubules. In our selection, we included additional kinases that are known to be involved in centrosome amplification (PLK4^[ [82] ^]), centrosome clustering (CDK1/2,^[ [83] ^] PLK1^[ [84] ^]), spindle multipolarity (SRC^[ [85] ^]), microtubule dynamics (AKT1^[ [86] ^]), and LIMK1/2 activation (ROCK1^[ [87] ^]) or are crucial for the mitosis (BUB1B, NEK2/9, WEE1^[ [88] ^]). Nonetheless, 1(R) and 1(S) at 10 µM had almost no inhibitory effects on any of the chosen kinases (Table 4 ). Only Aurora A (mean residual activity for 1(R): 86%, 1(S): 98%) and ASK1 (mean residual activity for 1(R): 90%, 1(S): 117%) were slightly enantioselectively impacted. However, we theorize that those marginal inhibitions are not explanatory for the antiproliferative and morphological effects of 1(R) on cancer cells.

In a further test the target is LIMK1 (Homo sapiens, UniProt P53667). As to the kind of experiment: biochemical. As to conditions: mean of intraexperimental duplicates, n = 1; read-out: Residual activities [% of control] / 1(R) 10 µM. The arrangement: 33PanQinase radiometric kinase activity assay, residual activity in % of control, contract lab Reaction Biology. As to the method: as §1
Sequence of LIMK1 (P53667 whole entry): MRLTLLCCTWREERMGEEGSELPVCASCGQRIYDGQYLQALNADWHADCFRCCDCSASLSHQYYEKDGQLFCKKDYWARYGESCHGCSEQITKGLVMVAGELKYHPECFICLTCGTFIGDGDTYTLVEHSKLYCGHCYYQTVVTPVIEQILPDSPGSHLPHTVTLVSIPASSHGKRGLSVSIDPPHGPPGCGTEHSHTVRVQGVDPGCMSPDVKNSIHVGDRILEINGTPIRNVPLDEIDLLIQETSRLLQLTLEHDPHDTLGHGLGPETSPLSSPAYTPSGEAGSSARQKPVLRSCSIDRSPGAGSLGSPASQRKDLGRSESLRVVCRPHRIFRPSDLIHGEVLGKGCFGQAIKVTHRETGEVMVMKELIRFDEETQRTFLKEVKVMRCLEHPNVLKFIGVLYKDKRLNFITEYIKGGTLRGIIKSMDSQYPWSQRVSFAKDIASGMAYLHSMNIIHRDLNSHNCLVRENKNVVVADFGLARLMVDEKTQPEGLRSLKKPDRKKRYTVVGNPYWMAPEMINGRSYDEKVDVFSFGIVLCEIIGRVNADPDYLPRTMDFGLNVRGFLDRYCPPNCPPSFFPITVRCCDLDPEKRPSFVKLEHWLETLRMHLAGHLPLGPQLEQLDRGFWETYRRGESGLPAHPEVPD
A further test has as its target T2, NEK9 (Homo sapiens, UniProt Q8TD19).
T2 sequence (Q8TD19 1-979): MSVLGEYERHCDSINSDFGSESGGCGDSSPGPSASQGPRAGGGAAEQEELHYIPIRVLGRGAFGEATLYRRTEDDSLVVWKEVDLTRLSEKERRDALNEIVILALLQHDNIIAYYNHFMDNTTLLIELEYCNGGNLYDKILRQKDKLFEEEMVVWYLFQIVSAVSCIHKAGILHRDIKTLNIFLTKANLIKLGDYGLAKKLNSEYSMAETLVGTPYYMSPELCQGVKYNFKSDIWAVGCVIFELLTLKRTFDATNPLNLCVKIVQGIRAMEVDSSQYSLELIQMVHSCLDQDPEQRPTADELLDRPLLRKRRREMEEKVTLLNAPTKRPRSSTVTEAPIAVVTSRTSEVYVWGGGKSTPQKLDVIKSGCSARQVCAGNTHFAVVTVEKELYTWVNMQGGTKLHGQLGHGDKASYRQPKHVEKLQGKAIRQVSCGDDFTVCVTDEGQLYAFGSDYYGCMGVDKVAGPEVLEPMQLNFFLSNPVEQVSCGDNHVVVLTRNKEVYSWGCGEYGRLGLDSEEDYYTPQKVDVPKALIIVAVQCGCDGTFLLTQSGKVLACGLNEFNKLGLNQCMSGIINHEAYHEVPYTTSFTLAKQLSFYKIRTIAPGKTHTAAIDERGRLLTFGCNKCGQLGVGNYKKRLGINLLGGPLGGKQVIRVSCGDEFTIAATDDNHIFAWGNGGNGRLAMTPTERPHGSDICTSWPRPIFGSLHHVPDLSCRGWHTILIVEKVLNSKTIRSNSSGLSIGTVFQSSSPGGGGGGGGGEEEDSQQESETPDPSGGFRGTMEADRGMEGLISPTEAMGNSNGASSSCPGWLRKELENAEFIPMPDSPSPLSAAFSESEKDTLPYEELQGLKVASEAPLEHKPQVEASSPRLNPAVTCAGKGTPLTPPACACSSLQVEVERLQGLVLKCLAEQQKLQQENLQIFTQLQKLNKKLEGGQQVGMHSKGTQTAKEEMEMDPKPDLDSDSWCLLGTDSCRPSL
As to the kind of experiment: biochemical. On the set-up: 33PanQinase radiometric kinase activity assay, residual activity in % of control, contract lab Reaction Biology. As to conditions: mean of intraexperimental duplicates, n = 1. As to the method:
as §1

A further test has as its target ROCK1 (Homo sapiens, UniProt Q13464). As to the kind of experiment: biochemical. On the set-up: 33PanQinase radiometric kinase activity assay, residual activity in % of control, contract lab Reaction Biology. Particulars: mean of intraexperimental duplicates, n = 1. As to the method:
as §1

In test [1] the target is T3, AuroraA (Homo sapiens, UniProt O14965).
T3 construct: gene AURKA
T3 sequence (O14965 1-403): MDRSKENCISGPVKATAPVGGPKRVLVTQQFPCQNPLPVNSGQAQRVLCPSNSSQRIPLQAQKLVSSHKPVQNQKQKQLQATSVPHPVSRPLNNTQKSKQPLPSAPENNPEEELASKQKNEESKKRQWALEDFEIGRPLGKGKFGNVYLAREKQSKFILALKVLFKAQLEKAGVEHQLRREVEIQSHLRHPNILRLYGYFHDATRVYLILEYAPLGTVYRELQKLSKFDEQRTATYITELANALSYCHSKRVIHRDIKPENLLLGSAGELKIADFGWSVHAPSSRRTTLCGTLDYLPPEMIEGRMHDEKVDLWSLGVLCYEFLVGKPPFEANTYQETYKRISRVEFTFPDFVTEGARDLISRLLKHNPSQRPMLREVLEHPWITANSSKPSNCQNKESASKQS
Put plainly: […]PanQinase radiometric kinase assay (Reaction Biology). Format: biochemical. As to conditions: read-out: Residual activities [% of control] / 1(R) 10 μM.

The target of test [2] is T3, AuroraA. As to the kind of experiment: biochemical. On the set-up: 33PanQinase radiometric kinase activity assay, residual activity in % of control, contract lab Reaction Biology. As to conditions: mean of intraexperimental duplicates, n = 1; read-out: Residual activities [% of control] / 1(S) 10 µM. As to the method: as §1
The mark [3] stands for this setting: read-out: Residual activities [% of control] / 1(R) 10 µM.
Where [4] appears, read: read-out: Residual activities [% of control] / 1(S) 10 µM.

Read-outs that look alike come from different tables or passages of the source.

Sequence of ROCK1 (Q13464 whole entry): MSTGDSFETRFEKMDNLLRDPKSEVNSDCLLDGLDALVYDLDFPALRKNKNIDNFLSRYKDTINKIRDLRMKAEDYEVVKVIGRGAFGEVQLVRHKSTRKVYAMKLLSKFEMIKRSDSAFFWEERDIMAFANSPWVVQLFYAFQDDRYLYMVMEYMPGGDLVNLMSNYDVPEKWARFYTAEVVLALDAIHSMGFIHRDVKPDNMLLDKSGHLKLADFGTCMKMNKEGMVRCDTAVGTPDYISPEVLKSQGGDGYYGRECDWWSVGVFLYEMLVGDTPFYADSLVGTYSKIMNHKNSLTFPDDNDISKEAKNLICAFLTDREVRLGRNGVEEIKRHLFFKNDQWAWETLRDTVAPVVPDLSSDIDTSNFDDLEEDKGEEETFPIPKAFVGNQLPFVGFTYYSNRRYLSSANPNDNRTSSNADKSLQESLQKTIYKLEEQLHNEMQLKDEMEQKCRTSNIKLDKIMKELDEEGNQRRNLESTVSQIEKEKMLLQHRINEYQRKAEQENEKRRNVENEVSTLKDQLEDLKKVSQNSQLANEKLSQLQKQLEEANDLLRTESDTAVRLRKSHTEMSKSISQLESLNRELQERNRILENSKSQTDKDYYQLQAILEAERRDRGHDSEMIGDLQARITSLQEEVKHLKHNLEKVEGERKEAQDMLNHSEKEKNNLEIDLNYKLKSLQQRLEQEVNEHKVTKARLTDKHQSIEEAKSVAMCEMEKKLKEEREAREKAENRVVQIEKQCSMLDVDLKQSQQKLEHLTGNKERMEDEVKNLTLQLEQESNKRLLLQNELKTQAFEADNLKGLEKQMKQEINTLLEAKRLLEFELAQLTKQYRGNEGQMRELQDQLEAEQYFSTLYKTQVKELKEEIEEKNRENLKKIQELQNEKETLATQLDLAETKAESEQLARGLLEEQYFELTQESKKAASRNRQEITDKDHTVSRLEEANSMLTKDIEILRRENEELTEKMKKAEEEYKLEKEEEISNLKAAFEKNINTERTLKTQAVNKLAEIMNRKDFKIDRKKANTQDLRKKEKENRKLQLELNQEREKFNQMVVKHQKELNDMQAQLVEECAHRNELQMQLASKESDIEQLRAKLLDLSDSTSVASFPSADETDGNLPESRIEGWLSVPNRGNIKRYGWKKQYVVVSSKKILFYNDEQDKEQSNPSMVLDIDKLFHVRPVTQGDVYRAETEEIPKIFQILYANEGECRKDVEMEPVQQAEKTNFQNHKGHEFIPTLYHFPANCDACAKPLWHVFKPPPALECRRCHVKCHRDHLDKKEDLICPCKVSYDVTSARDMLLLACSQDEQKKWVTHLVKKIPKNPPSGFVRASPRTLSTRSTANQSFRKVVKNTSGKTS
T1 sequence (Q96GD4 whole entry): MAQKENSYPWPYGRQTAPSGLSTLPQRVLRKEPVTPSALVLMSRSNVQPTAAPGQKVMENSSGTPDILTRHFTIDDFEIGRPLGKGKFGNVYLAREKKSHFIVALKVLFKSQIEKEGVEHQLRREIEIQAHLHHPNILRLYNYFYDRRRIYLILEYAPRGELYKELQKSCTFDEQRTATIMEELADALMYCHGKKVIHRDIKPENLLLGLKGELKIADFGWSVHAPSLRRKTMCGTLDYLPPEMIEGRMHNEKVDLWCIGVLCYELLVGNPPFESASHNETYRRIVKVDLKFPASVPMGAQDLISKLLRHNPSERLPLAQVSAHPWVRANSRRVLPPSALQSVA

Consider `Nc1ccc2ccccc2c1-c1c(N)ccc2ccccc12` [1(R), (R)‐[1,1′‐binaphthalene]‐2,2′‐diamine], for which the remaining activity at 10 µM at AuroraB was found to be 101%; at LIMK1, 103%; at NEK9 (setting [3]) it was 94%; on ROCK1 (setting [3]), 100%; on AuroraA [1], 86%.
Regarding `Nc1ccc2ccccc2c1-c1c(N)ccc2ccccc12` [1(S), S‐BINAM], the remaining activity at 10 µM amounted to 98% at AuroraA [2], 96% at NEK9 (setting [4]) and 97% on ROCK1 (setting [4]).
